Assay results reported in patent EP0006987A1, “2,4-Diamino-5-benzylpyrimidines, especially for the treatment of microbial infections, pharmaceutical compositions containing these compounds and processes for preparing these compounds” (THE WELLCOME FOUNDATION LIMITED, priority 1978, dated 1980).
Counter-ions that a name gives are not always drawn. Like-named read-outs stand apart in the source and are kept apart here. Marks after values point to notes of the source that are not given here.

Key:
[1] = Blood, urine and tissue concentrations in mice after oral administration (microbiological assay with Bacillus pumilus); type: in vivo; details: 2mg/mouse P.O.; for Urine Direct (percentage in brackets): appears to be direct urine concentration as percent of that after Glusalase; for concentration at 1 h / concentration at 2 h / concentration at 4 h: po; for concentration at 1 h: 1 hour after dosing, read-out: Conc. in blood at 1HR; for concentration at 2 h: 2 hours after dosing, read-out: Conc. in blood at 2HR
Description: Also shown in Table 1 is the concentration of each of the compounds in the blood urine and tissues of mice after oral administration. These concent rations were determined as described hereafter. The compounds, suspended in 0.1% methylcellulose, were administered by stomach tube to groups of 3 mice, the dose was 2.0mg per 20g mouse and blood was collected from the orbital sinus at 1, 2 and 4 hours after the dosing. Urine was collected directly from each animal at the 4th hour, after which the animals were killed. Liver, lung, brain and muscle was taken from each animal and homogenised in an equal volume (w/v) of water in a Polytron Homogenizer. The suspensions were taken to be 1:2 extracts of the tissues.
The concentrations of the drugs were determined microbiologically, using Bacillus pumilus, those in the urine determined both before and after 18 hours incubation with Glusalase (gluecuronidase and sulfatase).

[2] = system: Neisseria gonorrhoeae; assay: Antigonococcal activity, MIC by agar dilution, relative to trimethoprim; type: cell-based; details: expressed as activity versus TMP activity, 17 strains; for Antigonococcal Activity v.N.gonorrhaeae G.C.A.: Difco G.C. Agar; for Antigonococcal Activity v.N.gonorrhaeae W.S.T.A. (Repeat Examination) / Antigonococcal Activity v.N.gonorrhaeae W.S.T.A.: Wellcotest Sensitivity Test Agar; for Antigonococcal Activity v.N.gonorrhaeae W.S.T.A. (Repeat Examination): standardised inocula, 48 hours incubation; for Antigonococcal Activity v.N.gonorrhaeae W.S.T.A.: Screening Examination, 24 hours incubation
Description: (§1) The antigonococcal activity of 2,4-diamino-(3,5-diethyl-4-hydroxybenzyl)pyrimidine (compound 1), 2,4-diamino-(4-hydroxy-3,5-di-n-propylbenzyl)pyrimidine (compound 2), 2,4-diamino-(3-ethyl-4-hydroxy-5-n-propylbenzyl)pyrimidine (compound 3),24-diamino-(4-hydroxy-3,5-di-i-propylbenzyl)pyrimidine (compound 4) and 2,4-·diamino-·(3,5-di--t-butyl-4-hydroxybenzyl) pyrimidine (compound 5) and the antimeningococcal activity of compounds 2,3 and 4 were determined […] by the following methods. The activities were measured against 17 strains of Neisseria gonorrhoeae and 5 strains of Neisseria meningitidis in Wellcotest Sensitivity Test Agar supplemented with 5$ heated horse blood and 5% unheated lysed horse blood, In practice, 5% blood was added to 500ml quantities of the medium at 56°C and, after being placed in a 80°C water bath for 15 minutes and then cooled to 56°C, the lysed blood and the test compounds were added. The medium was then immediately poured into plates. The test compounds were dissolved as the isothionates.
(§2) In the Screening Examination, which consisted of 6 separate tests, the minimum inhibitory concentrations (MIC's) were determined in one-third interval dilutions and then reexamined in one-half interval dilution.
(§3) The inoculum in the Screening Examination was from an 18-hour Mueller-Hinton heated-blood broth culture, and applied with a lmm loop which was streaked along lcm.. Because the amount of growth produced by the strains varied, the inocula was not constant in these tests, in the Repeat Examination, the inocula were standardised to give "just confluent'' growth. The MIC's were read as that concentration which produced 90% or more inhibition of growth as compared macroscopically with that of the control growth. The incubation period for the Screening Examination was 24 hours and for the Repeat Examination 48 hours.
(§4) As standards, Escherichia coli (CN 314 ) and trimethoprim (TMP) were included in each test.
(§5) Using the above method the activities of compound 5 was measured against the same 17 strains of Neisseria gonorrhoeae and 5 strains of Neisseria meningitidis in Difco G.C. Agar.

[3] = system: Neisseria meningitidis; assay: Antimeningococcal activity, MIC by agar dilution, relative to trimethoprim; type: cell-based; details: expressed as activity versus TMP activity; 5 strains
Description: as §1, §2, §3, §4, §5

[4] = system: Escherichia coli (CN 314 ); assay: Activity against standard organism E. coli, MIC by agar dilution, relative to trimethoprim; type: cell-based; details: expressed as activity versus TMP activity
Description: The medium was then immediately poured into plates. The test compounds were dissolved as the isothionates. […] Because the amount of growth produced by the strains varied, the inocula was not constant in these tests, in the Repeat Examination, the inocula were standardised to give "just confluent'' growth. The MIC's were read as that concentration which produced 90% or more inhibition of growth as compared macroscopically with that of the control growth. The incubation period for the Screening Examination was 24 hours and for the Repeat Examination 48 hours. As standards, Escherichia coli (CN 314 ) and trimethoprim (TMP) were included in each test.

[5] = Acute oral toxicity in rats; details: rat, in vivo
[6] = Acute oral toxicity in mice; details: mouse, in vivo
[7] = blood, 4 hours after dosing, read-out: Conc. in blood at 4HR
[8] = brain, 4 hours, tissue homogenate, read-out: Concentration at 4HRS in: Brain
[9] = liver, 4 hours, tissue homogenate, read-out: Concentration at 4HRS in: Liver
[10] = lung, 4 hours, tissue homogenate, read-out: Concentration at 4HRS in: Lung
[11] = muscle, 4 hours, tissue homogenate, read-out: Concentration at 4HRS in: Muscle
[12] = 4 hours, urine after 18 hours incubation with Glusalase (glucuronidase and sulfatase), read-out: Concentration at 4HRS in: Urine After glacolase
[13] = 4 hours, urine before incubation with Glusalase, read-out: Concentration at 4HRS in: Urine Direct

SMILES	Urine Direct (percentage in brackets) ([1]; 4 hours) [%]	concentration at 1 h ([1]; blood) [ng/mL]	concentration at 2 h ([1]; blood) [ng/mL]	concentration at 4 h [1, 7] [µg/mL]	concentration at 4 h [1, 8] [µg/mL]	concentration at 4 h [1, 9] [µg/mL]	concentration at 4 h [1, 10] [µg/mL]	concentration at 4 h [1, 11] [µg/mL]	concentration at 4 h [1, 12] [µg/mL]	concentration at 4 h [1, 13] [µg/mL]	Antigonococcal Activity v.N.gonorrhaeae G.C.A. [2]	Antigonococcal Activity v.N.meningitidis [3]	Antigonococcal Activity v.N.gonorrhaeae W.S.T.A. (Repeat Examination) [2]	Antigonococcal Activity v.N.gonorrhaeae W.S.T.A. [2]	Antigonococcal Activity v.E.coli (CN314) [4]	LD50 [5] [mg/kg]	LD50 ([6]; female mice, read-out: LD50 (mice) female) [mg/kg]	LD50 ([6]; male mice, read-out: LD50 (mice) male) [mg/kg]
CC(C)(C)c1cc(Cc2cnc(N)nc2N)cc(C(C)(C)C)c1O [COMPOUND 5, 2,4-·diamino-·(3,5-di--t-butyl-4-hydroxybenzyl) pyrimidine]	42	4250	4000	3	4.4	6	11.2	< 0.26	240	100	7							
COc1cc(Cc2cnc(N)nc2N)cc(OC)c1OC [TMP, 2,4-diamino-5-(3,4,5-trimethoxybenzyl)pyrimidine, reference compound]	50	2150	280	< 0.02	< 0.04	1.08		< 0.04	400	200	1	1	1	1	1			
CC(C)c1cc(Cc2cnc(N)nc2N)cc(C(C)C)c1O [COMPOUND 4, 24-diamino-(4-hydroxy-3,5-di-i-propylbenzyl)pyrimidine]	50	1380	1080	0.65	0.46	8.3	2.6	< 0.03	190	95	13	7	17^**	18	0.03			
CC(C)c1cc(Cc2cnc(N)nc2N)cc(C(C)C)c1O [2,4-diamino-5-(3,5-diisopropyl-4-hvdroxyberzyl) pyrimidine lactate salt]																> 100	2890	2830
CCc1cc(Cc2cnc(N)nc2N)cc(CC)c1O [COMPOUND 1, 2,4-diamino-(3,5-diethyl-4-hydroxybenzyl)pyrimidine]	7	1110	410	0.4	0.34	1.94	1.75	< 0.03	790	56				7				
CCCc1cc(Cc2cnc(N)nc2N)cc(CCC)c1O [COMPOUND 2, 2,4-diamino-(4-hydroxy-3,5-di-n-propylbenzyl)pyrimidine]	2.5	1360	500	0.44	0.5	3.75	1.8	< 0.03	650	16		11	17^**	21	0.03			
CCCc1cc(Cc2cnc(N)nc2N)cc(CC)c1O [COMPOUND 3, 2,4-diamino-(3-ethyl-4-hydroxy-5-n-propylbenzyl)pyrimidine]	2.2	880	900	0.8	0.44	5	3.6	0.21	1800	39		7	18^**	21	>0.1			
